Assay results from the supplement of paper PMC5579334.

Experiments:
HS-PSS [1] = test: relative IC50 (inflection point of fitted dose-response curve, CellTox-Green cytotoxicity, 72 h; top asymptote may be below 50%); higher = less potent
In short: (§1)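 For 72 h at 37 °C, MPNST cell lines and primary human Schwann cells were exposed in 384-well plates to five 10-fold compound dilutions. CellTox-Green, added before seeding at a final 1:1000 dilution, gave fluorescence from DNA released by disrupted cells. Signals were scaled to vehicle and positive-control wells, cultures failing plate quality control were left out, and four-parameter logistic fits were applied. Relative IC50 and drug sensitivity score were derived from the fits, with IC50 censored at the top concentration.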

HSC1 [2] = test: as above
In short: as §1

HSC2 [3] = test: as above
In short: as §1

S1507-2 = test: as above
In short: as §1

ST8814 [4] = test: as above
In short: as §1

STS26T [5] = test: as above
In short: as §1

HS-PSS [6] = test: relative IC50 (inflection point of fitted dose-response curve, CellTiter-Glo viability, 72 h; top asymptote may be below 50% inhibition); higher = less potent
In short: (§2)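 After seeding 750–1000 cells per well of MPNST cell lines or primary human Schwann cells into 384-well plates preprinted with each compound at five concentrations in 10-fold steps, plates were kept 72 h at 37 °C, 5% CO2. Viability was read as CellTiter-Glo ATP luminescence relative to vehicle and positive-control wells, with duplicates averaged where present. The data were fitted with four-parameter logistic models. Drug sensitivity score and relative IC50, censored at the top concentration, derive from the fits, and percent inhibition refers to the top concentration.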

HS-Sch-2 = test: as above
In short: as §2

HSC1 [7] = test: as above
In short: as §2

HSC2 [8] = test: as above
In short: as §2

ST8814 [9] = test: as above
In short: as §2

STS26T [10] = test: as above
In short: as §2

YST-1 = test: as above
In short: as §2

SMILES	relative IC50 (HS-PSS [1])	relative IC50 (HSC1 [2])	relative IC50 (HSC2 [3])	relative IC50 (S1507-2)	relative IC50 (ST8814 [4])	relative IC50 (STS26T [5])	relative IC50 (HS-PSS [6])	relative IC50 (HS-Sch-2)	relative IC50 (HSC1 [7])	relative IC50 (HSC2 [8])	relative IC50 (ST8814 [9])	relative IC50 (STS26T [10])	relative IC50 (YST-1)
CCc1cncnc1N1CCN(Cc2nc3ccc(C(F)(F)F)cc3[nH]2)CC1	> 10 µM	> 10 µM	> 10 µM	> 10 µM	> 10 µM	> 10 µM	2.57 µM	3.73 µM	–	–	–	–	–
Nc1nc(F)nc2c1ncn2[C@@H]1O[C@H](CO)[C@@H](O)[C@@H]1O [Fludarabine]	> 10 µM	> 10 µM	> 10 µM	> 10 µM	> 10 µM	> 10 µM	–	2.2 µM	3.61 µM	2.72 µM	> 10 µM	1.65 µM	3.48 µM
Cc1ccc(F)c(NC(=O)Nc2ccc(-c3cccc4[nH]nc(N)c34)cc2)c1 [Linifanib]	> 1 µM	> 1 µM	> 1 µM	> 1 µM	> 1 µM	> 1 µM	> 1 µM	> 1 µM	> 1 µM	–	–	> 1 µM	> 1 µM
C[C@H]1C[C@@H]2[C@H]([C@@H](O)C[C@@]3(C)[C@H]2CC[C@]3(O)C(=O)CO)[C@@]2(C)C=CC(=O)C=C12 [Methylprednisolone]	> 10 µM	> 10 µM	> 10 µM	> 10 µM	> 10 µM	> 10 µM	> 10 µM	–	> 10 µM	> 10 µM	–	> 10 µM	–
CN(C)CCOc1ccc(/C(=C(/CCCl)c2ccccc2)c2ccccc2)cc1 [Toremifene]	> 10 µM	> 10 µM	> 10 µM	3.22 µM	2.82 µM	–	3.43 µM	3.46 µM	–	2.87 µM	4.06 µM	3.44 µM	3.74 µM
C[C@]1(c2nc3c(C(N)=O)cccc3[nH]2)CCCN1 [Veliparib]	> 10 µM	> 10 µM	> 10 µM	> 10 µM	> 10 µM	> 10 µM	–	> 10 µM	–	–	> 10 µM	> 10 µM	1.16 µM
C=CCN(/C=C1/C(=O)O[C@H](COC)[C@@]2(C)C1=C(O)C(=O)C1=C2[C@H](OC(C)=O)C[C@]2(C)C(=O)CC[C@@H]12)CC=C [Sonolisib]	> 10 µM	> 10 µM	> 10 µM	> 10 µM	> 10 µM	> 10 µM	> 10 µM	> 10 µM	–	–	–	–	> 10 µM
CN1CCN(c2nc(C3=C(c4c[nH]c5ccccc45)C(=O)NC3=O)c3ccccc3n2)CC1 [Sotrastaurin]	> 10 µM	> 10 µM	> 10 µM	> 10 µM	> 10 µM	> 10 µM	> 10 µM	> 10 µM	> 10 µM	> 10 µM	–	> 10 µM	–
C[C@@H]1C[C@H]2[C@@H]3CCC4=CC(=O)C=C[C@]4(C)[C@@]3(F)[C@@H](O)C[C@]2(C)[C@@]1(O)C(=O)CO [Dexamethasone]	> 10 µM	> 10 µM	> 10 µM	> 10 µM	> 10 µM	> 10 µM	> 10 µM	–	> 10 µM	> 10 µM	–	> 10 µM	–
CN1CCN(c2ccc3nc(-c4c(N)c5c(F)cccc5[nH]c4=O)[nH]c3c2)CC1 [Dovitinib]	> 10 µM	> 10 µM	> 10 µM	> 10 µM	> 10 µM	> 10 µM	> 10 µM	–	–	–	> 10 µM	–	–
Cc1ccc(C(=O)N(CCCN)[C@@H](c2oc3cc(Cl)ccc3c(=O)c2Cc2ccccc2)C(C)C)cc1	> 0.1 µM	> 0.1 µM	> 0.1 µM	> 0.1 µM	> 0.1 µM	> 0.1 µM	0.00129 µM	0.00166 µM	> 0.1 µM	> 0.1 µM	> 0.1 µM	> 0.1 µM	0.00094 µM
O=c1[nH]cc(F)c(=O)[nH]1 [Fluorouracil]	> 10 µM	> 10 µM	> 10 µM	> 10 µM	> 10 µM	–	3.57 µM	2.87 µM	3.58 µM	3.29 µM	> 10 µM	0.907 µM	3.28 µM
CCCCCCCCCCCCCCCCCCOP(=O)([O-])OC1CC[N+](C)(C)CC1 [Perifosine aq/PBS]	–	> 2.5 µM	> 2.5 µM	> 2.5 µM	–	0.963 µM	–	–	> 2.5 µM	> 2.5 µM	–	0.602 µM	–
Cc1sc2c(c1C)C(c1ccc(Cl)cc1)=N[C@H](CC(=O)OC(C)(C)C)c1nnc(C)n1-2 [(-)JQ1]	–	> 10 µM	> 10 µM	> 10 µM	> 10 µM	> 10 µM	–	–	–	–	–	–	–
C[C@@H]1CCN(C(=O)CC#N)C[C@@H]1N(C)c1ncnc2[nH]ccc12 [Tofacitinib]	> 5 µM	> 5 µM	> 5 µM	> 5 µM	> 5 µM	> 5 µM	> 5 µM	> 5 µM	–	0.742 µM	> 5 µM	–	> 5 µM
O=C(O)CNC(=O)c1c(O)c2ccccc2n(Cc2ccccc2)c1=O [IOX-2]	> 50 µM	> 50 µM	> 50 µM	> 50 µM	> 50 µM	> 50 µM	10.3 µM	12.5 µM	> 50 µM	–	8.42 µM	–	–
